Reference: patent US20140336259A1, “PHENOLIC COMPOUNDS WITH ANTIOXIDANT AND ANTI-CANCER PROPERTIES, ANALOGS AND SYNTHESIS THEREOF” (priority 2011, published 2014)
Converted amounts (≈) assume the structure as drawn. “And” between values parts separate entries of the source, which are not always exact repeats. Identical values can stand only once. Like-named read-outs stand apart in the source and are kept apart here.

Experiments:
[1] = tested on: MDA-MB-231 (ER negative) human breast cancer cells; experiment: MTS antiproliferative/cytotoxicity assay on MDA-MB-231 cells; format: cell-based
[2] = tested on: MCF-7 (estrogen receptor (ER) positive) human breast cancer cells; experiment: MTS antiproliferative/cytotoxicity assay on MCF-7 cells; details: for MCF-7 IC50: 72 h treatment, mean ± S.D., vs DMSO 0.5% control; for antiproliferative / cytotoxic activity in words: against MCF-7 cells and MDA-MB 231 cells, 72 h of treatment
[3] = tested on: colon cancer cell lines; details: Gonzales-Sarrias et al. 2011; cited from earlier work
[4] = tested on: MCF-7 (estrogen receptor (ER) positive) human breast cancer cells
[5] = Homo sapiens, MDA-MB-231, 72 h, 72 h, read-out: IC50 MDA-MB-231 72 h
[6] = Homo sapiens, MDA-MB-231, 72 h, 72 h treatment, mean ± S.D., vs DMSO 0.5% control, read-out: MDA-MB-231 IC50
[7] = Homo sapiens, MDA-MB-231, 96 h, 96 h, read-out: IC50 MDA-MB-231 96 h
[8] = read-out: IC50 MCF-7 72 h, 72 h
[9] = read-out: IC50 MCF-7 96 h, 96 h
[10] = Homo sapiens, MDA-MB-231, 24 h, 24 h, read-out: IC50 MDA-MB-231 24 h
[11] = Homo sapiens, MDA-MB-231, 48 h, read-out: IC50 MDA-MB-231 48 h, 48 h
[12] = read-out: IC50 MCF-7 24 h, 24 h
[13] = read-out: IC50 MCF-7 48 h, 48 h
[14] = 24 h, read-out: IC50 MDA-MB-231 24 h
[15] = 72 h, read-out: IC50 MDA-MB-231 72 h
[16] = 72 h treatment, mean ± S.D., vs DMSO 0.5% control
[17] = 96 h, read-out: IC50 MDA-MB-231 96 h
[18] = read-out: IC50 MDA-MB-231 48 h, 48 h

SMILES | IC50 [1, 5] | IC50 [1, 6] [µg/mL] | IC50 [1, 7] | MCF-7 IC50 [2] [µg/mL] | IC50 MCF-7 96 h ([2]; 96 h) [µg/mL] | antiproliferative / cytotoxic activity in words [2] | IC50 [2, 8] [µM] | IC50 [2, 9] [µM] | IC50 [1, 10] | IC50 [1, 11] | IC50 MCF-7 24 h ([2]; 24 h) [µg/mL] | IC50 MCF-7 48 h ([2]; 48 h) [µg/mL] | IC50 [2, 12] [µM] | IC50 [2, 13] [µM] | other results
COc1cc(C(O)c2ccccc2OC)ccc1OCc1ccccc1 (centres unmarked) [QB12] | 67.2 µg/mL and 192 µM | 62.9 to 77.4 | 58 µg/mL and 165 µM | 65.0 ± 1.4 | 59.6 (≈ 170 µM) | moderate cytotoxic activity | 185 | 170 |  |  |  |  |  |  | 
COc1cc(C(O)c2ccc(OCc3ccccc3)c(OC)c2)ccc1OCc1ccccc1 [QB46] | 62.9 µg/mL and 138 µM | 62.9 to 77.4 | 53 µg/mL and 116 µM | 44.8 ± 1.7 | 36.8 (≈ 80.6 µM) | moderate cytotoxic activity | 98.1 | 80.7 | 78.3 µg/mL and 172 µM | 72.4 µg/mL and 159 µM | 73.2 (≈ 160 µM) | 59.5 (≈ 130 µM) | 160 | 130 | 
CCOC(=O)C(c1ccc(OCc2ccccc2)c(OC)c1)C(c1ccc(OCc2ccccc2)c(OC)c1)c1ccc(OCc2ccccc2)c(OC)c1 (centres unmarked) [QB56] | 136 µg/mL and 185 µM | 136 ± 3.7 | 129 µg/mL and 176 µM | 138.1 ± 3.1 | 124.9 (≈ 169 µM) |  | 188 | 170 |  | 143 µg/mL and 195 µM |  |  |  |  | 
CCOC(=O)C(c1ccc(O)c(OC)c1)C(c1ccc(O)c(OC)c1)c1ccc(O)c(OC)c1 (centres unmarked) [QB57] | 85.1 µg/mL and 182 µM | 85.1 ± 1.8 | 73.8 µg/mL and 158 µM |  |  |  |  |  |  |  |  |  |  |  | 
COc1cc(C(CO)C(c2ccc(O)c(OC)c2)c2ccc(O)c(OC)c2)ccc1O (centres unmarked) [QUEBECOL SYNTHETIC, 4,4′,4″-(3-Hydroxypropane-1,1,2-triyl)tris(2-methoxyphenol)] |  |  |  | 44.4 ± 1.8 | 38.0 (≈ 89.1 µM) |  | 104 | 89.1 |  |  | 67.2 (≈ 158 µM) | 54.2 (≈ 127 µM) | 158 | 127 | IC50 MDA-MB-231 24 h ([1]; 24 h): 72.5 µg/mL (≈ 170 µM); IC50 [1, 14]: 170 µM; IC50 MDA-MB-231 48 h ([1]; 48 h): 55.6 µg/mL (≈ 130 µM); IC50 MDA-MB-231 72 h ([1]; 72 h): 48.5 µg/mL (≈ 114 µM); IC50 [1, 15]: 114 µM; MDA-MB-231 IC50 [1, 16]: 48.5 ± 1.9 µg/mL; IC50 MDA-MB-231 96 h ([1]; 96 h): 43.8 µg/mL (≈ 103 µM); IC50 [1, 17]: 103 µM; IC50 [1, 18]: 130 µM
COc1cc(C(CO)C(c2ccc(O)c(OC)c2)c2ccc(O)c(OC)c2)ccc1O (centres unmarked) [QUEBECOL, 4,4′,4″-(3-Hydroxypropane-1,1,2-triyl)tris(2-methoxyphenol)] | 50.7 µg/mL and 119 µM | 50.7 ± 2.4 | 43.3 µg/mL and 102 µM | 46.3 ± 2.1 | 37.4 (≈ 87.7 µM) |  |  |  | 70.9 µg/mL and 166 µM | 57 µg/mL and 134 µM | 65.9 (≈ 155 µM) | 53.5 (≈ 125 µM) |  |  | IC50 ([1]; Homo sapiens, MDA-MB-231, 24 h, 24 h, combination study Table 5B, T starting 50 μM, Q starting 200 μM, read-out: IC50 MDA-MB-231 24 h): 166 µM; IC50 ([1]; Homo sapiens, MDA-MB-231, 48 h, read-out: IC50 MDA-MB-231 48 h, 48 h, combination study Table 5B): 134 µM; IC50 ([1]; Homo sapiens, MDA-MB-231, 72 h, 72 h, combination study Table 5B, read-out: IC50 MDA-MB-231 72 h): 119 µM; IC50 ([1]; Homo sapiens, MDA-MB-231, 96 h, 96 h, combination study Table 5B, read-out: IC50 MDA-MB-231 96 h): 102 µM; cytotoxic effect on colon cancer cell lines [3]: cytotoxic effect; MCF-7 IC50 ([2]; listed as QUEBECOL Natural): 46.3 ± 2.1 µg/mL; IC50 ([2]; read-out: IC50 MCF-7 24 h, 24 h, combination study Table 5A, T starting 50 μM, Q starting 200 μM): 155 µM; IC50 ([2]; read-out: IC50 MCF-7 24 h, 24 h, listed as QUEBECOL Natural): 155 µM; IC50 ([2]; read-out: IC50 MCF-7 48 h, 48 h, combination study Table 5A): 126 µM; IC50 ([2]; read-out: IC50 MCF-7 48 h, 48 h, listed as QUEBECOL Natural): 126 µM; IC50 ([2]; read-out: IC50 MCF-7 72 h, 72 h, combination study Table 5A): 109 µM; IC50 ([2]; read-out: IC50 MCF-7 72 h, 72 h, listed as QUEBECOL Natural): 109 µM; IC50 ([2]; read-out: IC50 MCF-7 96 h, 96 h, combination study Table 5A): 87.9 µM; IC50 ([2]; read-out: IC50 MCF-7 96 h, 96 h, listed as QUEBECOL Natural): 87.9 µM
COC(=O)c1cc(C(O)(c2ccc(O)c(C(=O)OC)c2)c2ccc(O)c(C(=O)OC)c2)ccc1O [TRD1] | 93.9 µg/mL and 195 µM | 93.9 ± 2.4 | 89.4 µg/mL and 185 µM | 84.1 ± 3.4 | 78.3 (≈ 162 µM) |  | 174 | 162 |  |  | 94.2 (≈ 195 µM) | 89.1 (≈ 185 µM) | 195 | 185 | 
OCc1cc(CCCCCCCCCCCCc2ccc(O)c(CO)c2)ccc1O [TRD5] | 81.6 µg/mL and 197 µM | 62.9 to 77.4 | 78.2 µg/mL and 189 µM | 75.9 ± 1.9 | 66.5 (≈ 160 µM) | moderate cytotoxic activity | 183 | 160 |  |  |  | 80.9 (≈ 195 µM) |  | 195 | 
COc1ccc(C(O)(c2ccc(OC)c(O)c2)c2ccc(OC)c(O)c2)cc1O [TRD6] | 75.2 µg/mL and 189 µM | 62.9 to 77.4 | 71.5 µg/mL and 179 µM | 60.4 ± 1.9 | 43.6 (≈ 109 µM) | moderate cytotoxic activity | 152 | 109 |  |  | 78.7 (≈ 198 µM) | 66.1 (≈ 166 µM) | 198 | 166 | 
COc1ccc(C(O)(c2ccc(OC)c(F)c2)c2ccc(OC)c(F)c2)cc1F [TRD7] |  |  |  |  | 23.2 (≈ 57.4 µM) | highest antiproliferative activities | 61.3 | 57.3 |  |  | 42.3 (≈ 105 µM) | 32.7 (≈ 80.9 µM) | 105 | 80.9 | IC50 MDA-MB-231 24 h ([1]; 24 h): 36.4 µg/mL (≈ 90 µM); IC50 [1, 14]: 90 µM; IC50 MDA-MB-231 48 h ([1]; 48 h): 30.4 µg/mL (≈ 75.2 µM); IC50 MDA-MB-231 72 h ([1]; 72 h): 24.0 µg/mL (≈ 59.3 µM); IC50 [1, 15]: 59.4 µM; MDA-MB-231 IC50 [1, 16]: 24.0 ± 2.1 µg/mL; IC50 MDA-MB-231 96 h ([1]; 96 h): 15.6 µg/mL (≈ 38.6 µM); IC50 [1, 17]: 38.7 µM; IC50 [1, 18]: 75.3 µM; IC50 MCF-7 72 h ([2]; 72 h): 24.8 µg/mL (≈ 61.3 µM)
COc1ccc(C(O)(c2ccc(OC)c(C=O)c2)c2ccc(OC)c(C=O)c2)cc1C=O [TRD8] | 17.4 µg/mL and 40 µM | 17.5 to 24 | 11.2 µg/mL and 25.8 µM | 10.6 ± 2.1 | 7.0 (≈ 16.1 µM) | highest antiproliferative activities | 24.3 | 16.2 | 43.5 µg/mL and 100 µM | 27.8 µg/mL and 63.9 µM | 42.0 (≈ 96.7 µM) | 21.8 (≈ 50.2 µM) | 96.7 | 50.1 | 
COc1ccc(C(O)(c2ccc(OC)c(Br)c2)c2ccc(OC)c(Br)c2)cc1Br [TRD9] | 97.8 µg/mL and 167 µM | 97.8 ± 3.5 | 89.9 µg/mL and 153 µM | 91.4 ± 3.4 | 82.3 (≈ 140 µM) |  | 156 | 140 | 115 µg/mL and 196 µM | 108 µg/mL and 183 µM | 110.7 (≈ 189 µM) | 102.5 (≈ 175 µM) | 189 | 175 | 
COc1ccc(C(O)(c2ccc(OC)c(Cl)c2)c2ccc(OC)c(Cl)c2)cc1Cl [TRD10] | 77.4 µg/mL and 170 µM | 62.9 to 77.4 | 68.7 µg/mL and 151 µM | 73.5 ± 1.8 | 54.4 (≈ 120 µM) |  | 162 | 120 |  | 85.8 µg/mL and 189 µM | 87.0 (≈ 192 µM) | 81.9 (≈ 180 µM) | 192 | 180 | antiproliferative / cytotoxic activity in words [4]: moderate cytotoxic activity
